Test results taken from patent EP2140864A2 (H. Lundbeck A/S, priority 2001, dated 2002).
Where two headings read alike, the source gives them in different places.

What was measured:
human α2B adrenoceptor = molecular target: T1, human α2B adrenoceptor (Homo sapiens, UniProt P18089); experiment: Radioligand binding, α2B adrenergic receptor
T1 construct: expressed in transfected cells
T1 sequence (P18089 1-450): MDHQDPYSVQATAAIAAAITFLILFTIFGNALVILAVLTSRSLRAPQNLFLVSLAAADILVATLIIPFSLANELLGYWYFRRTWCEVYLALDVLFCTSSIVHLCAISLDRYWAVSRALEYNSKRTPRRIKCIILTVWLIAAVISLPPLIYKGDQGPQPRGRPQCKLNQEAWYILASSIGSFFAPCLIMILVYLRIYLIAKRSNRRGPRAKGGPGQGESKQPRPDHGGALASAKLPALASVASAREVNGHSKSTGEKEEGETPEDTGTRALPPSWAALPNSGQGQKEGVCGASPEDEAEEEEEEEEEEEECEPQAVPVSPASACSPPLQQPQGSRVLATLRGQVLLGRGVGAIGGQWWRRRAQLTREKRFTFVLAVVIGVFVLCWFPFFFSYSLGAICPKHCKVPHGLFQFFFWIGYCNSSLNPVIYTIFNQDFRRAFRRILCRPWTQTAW
From the text: (§1) Other receptors: Cell membranes expressing human dopamine D1, D2, D4 and rat D3 receptors were purchased through BioSignal, Inc. (Montreal, Canada). Binding assays using the histamine H1 receptor; dopamine receptors; and α1A, α1E, and α2 adrenergic receptors may be carried out according to the procedures described in U.S. Patent No. 5,780,485, the disclosure of which is hereby incorporated by reference in its entirety into this application. Binding assays using the dopamine D5 receptor may be carried out according to the procedures described in U.S. Patent No. 5,882,855, the disclosure of which is hereby incorporated by reference in its entirety into this application. Binding assays for the human α1D adrenergic receptor may be carried out according to the procedures described in U.S. Patent No. 6,156,518, the disclosure of which is hereby incorporated by reference in its entirety into this application.
(§2) Binding data were analyzed using nonlinear regression and statistical techniques available in the GraphPAD Prism package (San Diego, CA). Enzymatic assay data were derived from a standard curve of reference compound data.

human 5HT4 receptor = molecular target: T2, human 5HT4 receptor (Homo sapiens, UniProt Q13639); experiment: Radioligand binding, 5-HT4 receptor
T2 construct: expressed in transfected cells
Experimental: Other 5-HT Receptors: Other serotonin receptor binding assays were performed according to published methods: rat 5HT2C receptor (Julius et al., 1988); and 5-HT6 (Monsma, et al., 1993). The binding assays using the 5-HT4 receptor were performed according to the procedures described in U.S. Patent No. 5,766,879, the disclosure of which is hereby incorporated by reference in its entirety into this application.
as §2

human 5HT1A receptor = molecular target: T3, human 5HT1A receptor (Homo sapiens, UniProt P08908); experiment: Radioligand binding, 5-HT1A receptor (3H-8-OH-DPAT)
T3 construct: expressed in transfected cells; host or cells: COS-7 cells, transient (pCEXV-3 vector)
T3 sequence (P08908 1-422): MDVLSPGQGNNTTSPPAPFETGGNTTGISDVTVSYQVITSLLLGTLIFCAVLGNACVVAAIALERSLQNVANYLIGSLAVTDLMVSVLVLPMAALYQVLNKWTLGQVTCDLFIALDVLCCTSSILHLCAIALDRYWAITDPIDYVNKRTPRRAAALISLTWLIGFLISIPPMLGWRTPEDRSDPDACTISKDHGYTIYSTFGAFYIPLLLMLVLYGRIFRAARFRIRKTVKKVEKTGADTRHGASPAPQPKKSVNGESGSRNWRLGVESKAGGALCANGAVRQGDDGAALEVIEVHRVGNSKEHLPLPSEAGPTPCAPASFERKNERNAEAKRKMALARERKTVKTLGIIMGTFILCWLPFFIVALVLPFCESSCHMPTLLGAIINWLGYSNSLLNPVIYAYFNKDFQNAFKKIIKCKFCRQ
Experimental: 5-HT1A Receptor: The cDNA corresponding to the 5-HT1A receptor open reading frames and variable non-coding 5'-and 3'-regions, was cloned into the eukaryotic expression vector pCEXV-3. These constructs were transfected transiently into COS-7 cells by the DEAE-dextran method (Cullen, 1987), and harvested after 72 hours. Radioligand binding assays were performed as described above for the 5-HT2A receptor, except that ^3H-8-OH-DPAT was used as the radioligand and nonspecific binding was determined by the addition of 10 µM mianserin.
as §2

human 5HT1D = molecular target: T4, human 5HT1D (Homo sapiens, UniProt P28221); experiment: Radioligand binding, 5HT1D receptor ([3H]-serotonin)
T4 construct: expressed in transfected cells
Experimental: Human 5HT1B, 5HT1D, 5HT1E, 5HT1F, and 5HT7 Receptors: The cell lysates of LM(tk-) clonal cell line stably transfected with the genes encoding each of these 5HT receptor-subtypes were prepared as described above. Cell membranes were suspended in 50mM Tris-HCl buffer (pH 7.4 at 37°C) containing 10 mM MgCl2, 0.2 mM EDTA, 10 µM pargyline, and 0.1% ascorbate. […] Nonspecific binding was determined in the presence of 10 µM serotonin. The bound radioligand was separated by filtration through GF/B filters using a cell harvester.
as §2

dopamine D5 receptor = molecular target: T5, dopamine D5 receptor (Homo sapiens, UniProt P21918); experiment: Radioligand binding, dopamine D5 receptor
T5 construct: expressed in transfected cells
From the text: as §1, §2

[1] = molecular target: T6, human α1D adrenergic receptor (Homo sapiens, UniProt P25100); experiment: Radioligand binding, α1D adrenergic receptor
T6 construct: expressed in transfected cells
T6 sequence (P25100 1-572): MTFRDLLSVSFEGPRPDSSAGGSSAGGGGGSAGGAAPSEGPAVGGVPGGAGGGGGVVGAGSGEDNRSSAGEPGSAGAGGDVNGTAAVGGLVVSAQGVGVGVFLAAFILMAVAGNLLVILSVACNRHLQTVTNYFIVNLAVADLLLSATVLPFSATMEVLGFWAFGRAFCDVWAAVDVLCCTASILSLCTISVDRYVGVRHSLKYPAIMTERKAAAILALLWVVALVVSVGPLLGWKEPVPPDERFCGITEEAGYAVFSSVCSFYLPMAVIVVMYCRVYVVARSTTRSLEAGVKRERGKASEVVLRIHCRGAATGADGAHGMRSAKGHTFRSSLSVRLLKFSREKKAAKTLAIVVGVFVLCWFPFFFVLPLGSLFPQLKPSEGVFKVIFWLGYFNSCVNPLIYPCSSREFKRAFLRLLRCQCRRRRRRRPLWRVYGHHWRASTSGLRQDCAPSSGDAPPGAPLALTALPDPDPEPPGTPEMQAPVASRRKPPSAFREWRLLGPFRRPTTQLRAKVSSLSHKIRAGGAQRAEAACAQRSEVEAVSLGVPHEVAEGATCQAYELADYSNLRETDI
From the text: as §1, §2

[2] = Table 10; Ki hα2B divided by Ki hGAL3
[3] = Table 8; Ki h5HT4 divided by Ki hGAL3
[4] = Table 8; Ki h5HT1A divided by Ki hGAL3
[5] = Table 8; Ki h5HT1D divided by Ki hGAL3
[6] = Table 10; Ki hD5 divided by Ki hGAL3
[7] = Table 10; Ki hα1D divided by Ki hGAL3

T4 sequence (P28221 whole entry): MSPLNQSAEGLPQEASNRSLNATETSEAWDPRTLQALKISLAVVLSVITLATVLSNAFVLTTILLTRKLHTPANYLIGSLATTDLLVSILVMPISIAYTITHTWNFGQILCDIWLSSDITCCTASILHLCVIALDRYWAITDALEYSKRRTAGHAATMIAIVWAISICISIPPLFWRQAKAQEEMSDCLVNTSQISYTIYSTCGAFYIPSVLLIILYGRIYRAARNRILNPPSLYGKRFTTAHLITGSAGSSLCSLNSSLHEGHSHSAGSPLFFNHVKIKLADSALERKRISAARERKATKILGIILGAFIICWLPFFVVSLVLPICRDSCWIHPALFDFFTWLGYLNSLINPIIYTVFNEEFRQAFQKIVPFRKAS
T2 sequence (Q13639 whole entry): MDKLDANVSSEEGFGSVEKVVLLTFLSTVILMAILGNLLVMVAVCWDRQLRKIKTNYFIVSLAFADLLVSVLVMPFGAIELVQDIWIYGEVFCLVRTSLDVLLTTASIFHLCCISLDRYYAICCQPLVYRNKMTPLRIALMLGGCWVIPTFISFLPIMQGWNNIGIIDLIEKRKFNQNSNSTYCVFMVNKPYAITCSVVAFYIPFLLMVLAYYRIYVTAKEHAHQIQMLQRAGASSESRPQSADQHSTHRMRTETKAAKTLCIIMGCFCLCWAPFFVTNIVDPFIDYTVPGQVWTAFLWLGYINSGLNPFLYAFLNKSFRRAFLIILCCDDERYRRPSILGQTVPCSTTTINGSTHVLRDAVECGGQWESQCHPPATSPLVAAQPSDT
T5 sequence (P21918 whole entry): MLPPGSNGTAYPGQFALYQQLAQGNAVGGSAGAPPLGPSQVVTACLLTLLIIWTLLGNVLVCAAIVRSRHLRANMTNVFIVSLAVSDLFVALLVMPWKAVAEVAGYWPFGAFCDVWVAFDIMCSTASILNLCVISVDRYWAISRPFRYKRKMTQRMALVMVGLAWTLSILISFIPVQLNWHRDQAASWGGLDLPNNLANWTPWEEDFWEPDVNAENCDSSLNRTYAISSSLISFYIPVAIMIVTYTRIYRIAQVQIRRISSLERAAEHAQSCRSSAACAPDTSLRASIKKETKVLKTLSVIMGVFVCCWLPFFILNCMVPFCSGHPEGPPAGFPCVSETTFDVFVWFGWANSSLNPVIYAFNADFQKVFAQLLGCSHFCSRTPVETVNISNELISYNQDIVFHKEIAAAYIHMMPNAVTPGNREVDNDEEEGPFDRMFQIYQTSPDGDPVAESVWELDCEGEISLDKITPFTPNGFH

SMILES	Ki (human α2B adrenoceptor; Table 9; read-out: hα2B Ki) [nM]	selectivity ratio hα2B (human α2B adrenoceptor; [2])	Ki (human 5HT4 receptor; Table 7; read-out: h5HT4 Ki) [nM]	selectivity ratio h5HT4 (human 5HT4 receptor; [3])	Ki (human 5HT1A receptor; Table 7; read-out: h5HT1A Ki) [nM]	selectivity ratio h5HT1A (human 5HT1A receptor; [4])	Ki (human 5HT1D; Table 7; read-out: h5HT1D Ki) [nM]	selectivity ratio h5HT1D (human 5HT1D; [5])	Ki (dopamine D5 receptor; Table 9; read-out: hD5 Ki) [nM]	selectivity ratio hD5 (dopamine D5 receptor; [6])	Ki ([1]; Table 9; read-out: hα1D Ki) [nM]	selectivity ratio hα1D [1, 7]	Ki (human α2B adrenoceptor; read-out: hα2B Ki; Table 9) [nM]	Ki (human 5HT4 receptor; read-out: h5HT4 Ki; Table 7) [nM]	Ki (human 5HT1A receptor; read-out: h5HT1A Ki; Table 7) [nM]	Ki (human 5HT1D; read-out: h5HT1D Ki; Table 7) [nM]	Ki (dopamine D5 receptor; read-out: hD5 Ki; Table 9) [nM]	Ki ([1]; read-out: hα1D Ki; Table 9) [nM]
Cc1ccc(Nc2cc(N3CCCCC3)nc(N(C)CCc3c[nH]c4ccccc34)n2)cc1 [Example 11]	10200	>100	1310	14	4680	>30	102	1	64	0.7	264	3						
CN(CCc1c[nH]c2ccccc12)c1nc(Nc2ccc(F)c(F)c2)cc(N2CCCCC2)n1 [Example 15]	24500	>100	2300	>30	5100	>30	1270	17	78	1	480	7						
COc1cccc(Nc2cc(N3CCCCC3)nc(N(C)CCc3c[nH]c4ccccc34)n2)c1 [Example 17]	38700	>100	2610	30	3480	>30	1030	12	89	1	221	3						
Cc1ccc(Nc2cc(N3CCCCC3)nc(N(C)CCc3ccccc3)n2)cc1 [Example 22]	5760	>100	2460	>30	9710	>100	1850	>30	63	2	368	13						
Cc1ccc(Nc2cc(N3CCCCC3)nc(N3CCN(c4ncccc4C(F)(F)F)CC3)n2)cc1 [Example 34]	15500	>100	20800	>100		>100	2980	>100	111	5	1240	>30						
COC[C@@H]1[C@@H](c2ccccc2)OCCN1c1nc(Nc2ccc(C)cc2)cc(N2CCCCC2)n1 [Example 49]		>100		>30		>100		>30		2		3	25400	13200	29200	16900	328	678
CN(C)c1cc(Nc2ccc(Cl)c(Cl)c2)nc(Nc2ccccc2)n1 [Example 60]	> 50000	>100	1180	14	33700	>100	9200	>100	538	6	4230	>30						
Cc1ccc(Nc2cc(N(C)C)nc(N(C)CCc3c[nH]c4ccccc34)n2)cc1 [Example 77]	7780	>30	1320	17	5470	>30	716	9	122	2	217	3						
O=C1C(=Nc2cccc(C(F)(F)F)c2)c2ccccc2N1c1ccccc1 [Example 92, 1-PHENYL-3- [[3-(TRIFLUOROMETHYL)PHENYL]IMINO]-1,3-DIHYDRO-2H-INDOL-2-ONE]		>100		2		>100		>100		>100		>100						
O=C1C(=Nc2cccc(Cl)c2)c2ccccc2N1c1ccccc1 [Example 94, 3-[(3-CHLOROPHENYL)IMINO]-1-PHENYL-1,3-DIHYDRO-2H-INDOL-2-ONE]	45400	>100	4120	>30	> 50000	>100	10800	>100	727	15	4030	>30						
O=C1C(=Nc2ccc(C(F)(F)F)cc2)c2ccccc2N1c1ccccc1 [Example 95, 1-PHENYL-3-[[4-(TRIFLUOROMETHYL)PHENYL]IMINO]-1,3-DIHYDRO-2H-INDOL-2-ONE]	> 50000	>100	3030	>100	28300	>100	16000	>100	2590	>30	3470	>100						
